15 molecules from patent publication US11492325B2, “Compounds as inhibitors of sodium channels” (Human BioMolecular Research Institute, priority 2016, dated 2022) can be followed below.

Series [1] concerns normal human induced pluripotent stem cell (hiPSC) cardiomyocyte. The note with it: for WT-Fold Prolongation: APD; for WT-Fold Prolongation / Cessation of Beating / WT-Prolongation Dose / WT-EAD Dose: normal hiPSC cardiomyocytes; for WT-EC50 (μM) Prolongation: AP prolongation.
Series [2] relates to cardiomyocytes derived from hiPSCs from a LQTS3 patient. The settings on record: for LQT-EC50 (μM) Shortening: AP shortening.
Setting [3] is: LQT-3 cardiomyocytes, cessation of beating.

Read-outs that look alike come from different tables or passages of the source.

For `CC(=O)NC(C)COc1c(C)cccc1C` (stereo not shown) [Compound 53], in series [1], the “WT-Fold Prolongation” value is recorded as “None”, the “Cessation of Beating” value is reported as “None” and the “WT-Prolongation Dose” value was “None”. For the same molecule, in series [2] (LQT3 cardiomyocytes), the “LQT-Cessation Dose” value was “None”, the “LQT-Fold Shortening” value was “None” and the “LQT-Shortening Dose” value was “None”.
Take `NC(COc1cc(C(F)(F)F)cc(C(F)(F)F)c1)c1ccc2ccccc2c1` (stereo not shown) [Compound 132]: in series [1] (WT cardiomyocytes), the “WT-EC50 (μM) Prolongation” value was “Does Not Prolong AP”. Also, in series [2] (LQT-3 cardiomyocytes), the “LQT-Fold Shortening” value was 1.205 and the “LQT-EC50 (μM) Shortening” value was “Shortens”. In addition, in series [2] (setting [3]), the “LQT-Cessation Dose (μM)” value was “No cessation of beating”.
Regarding `Cc1cc(OCC(N)c2ccccc2)cc(C)n1.Cl` (stereo not shown) [Compound 79], in series [1], the “WT-Fold Prolongation” value is listed as 5.06, the “Cessation of Beating” value is on record as “None” and the “WT-EAD Dose” value stood at 200 µM. Besides, in series [2] (LQT3 cardiomyocytes), the “LQT-Cessation Dose” value is “None” and the “LQT-Fold Shortening” value amounted to 1.145.
For the molecule `Cc1cc(C)cc(OCC(NCCN2CCOCC2)c2ccccc2)c1` (stereo not shown) [Compound 98], in series [1], the “WT-Fold Prolongation” value turned out to be 1.54. Moreover, in series [2] (LQT3 cardiomyocytes), the “LQT-Cessation Dose” value worked out at 66 µM and the “LQT-Fold Shortening” value is reported as 1.3.
For `NC(COc1cncc(C(F)(F)F)c1)c1ccccc1` (stereo not shown) [Compound 116], the “WT-EC50 (μM) Prolongation” value in series [1] (WT cardiomyocytes) is listed as “Does Not Prolong AP”. Moreover, in series [2] (LQT-3 cardiomyocytes), the “LQT-Fold Shortening” value was 1.422 and the “LQT-EC50 (μM) Shortening” value is “Shortens”.
Turning to `Cc1ccnc(OCC(N)c2ccccc2)c1` (stereo not shown) [Compound 95, 2-((4-methylpyridin-2-yl)oxy)-1-phenylethan-1-amine], in series [1], the “WT-Fold Prolongation” value is on record as 2.68, the “Cessation of Beating” value is “None” and the “WT-EAD Dose” value came out at 133 µM. Moreover, in series [2] (LQT3 cardiomyocytes), the “LQT-Cessation Dose” value came to 22 µM and the “LQT-Fold Shortening” value turned out to be 1.22.
With `COCCNC(COc1cnccc1C)c1ccccc1` (stereo not shown) [Compound 123], in series [1] (WT cardiomyocytes), the “WT-EC50 (μM) Prolongation” value is “Does Not Prolong AP”. Also, in series [2] (LQT-3 cardiomyocytes), the “LQT-Fold Shortening” value is recorded as 1.402 and the “LQT-EC50 (μM) Shortening” value is reported as “Shortens”.
Consider `CC(COC1CCCCC1)=NOCc1ccccc1` [Compound 45], for which, in series [1], the “WT-Fold Prolongation” value is given as “None”, the “Cessation of Beating” value was “None” and the “WT-Prolongation Dose” value is on record as “None”. In series [2] (LQT3 cardiomyocytes), the “LQT-Cessation Dose” value is on record as “None” and the “LQT-Fold Shortening” value turned out to be 1.37.
With `Cc1cc(C)cc(OCC(N)c2ccc3ccccc3c2)c1` (stereo not shown) [Compound 135], the “WT-EC50 (μM) Prolongation” value in series [1] (WT cardiomyocytes) is “Does Not Prolong AP”. In addition, in series [2] (LQT-3 cardiomyocytes), the “LQT-Fold Shortening” value is 1.667, the “LQT-Shortening Dose” value was 133 µM and the “LQT-EC50 (μM) Shortening” value is listed as “Shortens”. Further, the “LQT-Cessation Dose” value in series [2] (setting [3]) turned out to be 200 µM.
On to `CCNC(C)COc1c(C)cccc1C` (stereo not shown) [Compound 41, 1-(2,6-dimethylphenoxy)-N-ethylpropan-2-amine], for which, in series [1], the “WT-Fold Prolongation” value stood at 5.338, the “Cessation of Beating” value is given as “None” and the “WT-EAD Dose” value amounted to 133 µM. Further, in series [2] (LQT3 cardiomyocytes), the “LQT-Cessation Dose” value is “None”, the “LQT-Fold Shortening” value is reported as “None” and the “LQT-Shortening Dose” value is on record as “None”.
As for `Cc1ccc(OCC(N)c2ccccc2)cc1C.Cl` (stereo not shown) [Compound 75], in series [1], the “WT-Fold Prolongation” value is on record as “None”, the “Cessation of Beating” value is 66 µM and the “WT-Prolongation Dose” value is “None”. In addition, in series [2] (LQT3 cardiomyocytes), the “LQT-Cessation Dose” value amounted to 66 µM and the “LQT-Fold Shortening” value is listed as 1.370.
For `CNC(COc1cccc(C)c1C)c1ccccc1` (stereo not shown) [Compound 34, 2-(2,3-dimethylphenoxy)-N-methyl-1-phenylethanamine], in series [1], the “WT-Fold Prolongation” value is listed as “None”, the “Cessation of Beating” value is 133 µM and the “WT-Prolongation Dose” value is given as “None”. For the same molecule, in series [2] (LQT3 cardiomyocytes), the “LQT-Cessation Dose” value was 66 µM and the “LQT-Fold Shortening” value was determined as 1.29.
As for `Cc1ccc(OCC(N)c2ccccc2)c(C)n1` (stereo not shown) [Compound 119], the “WT-EC50 (μM) Prolongation” value in series [1] (WT cardiomyocytes) is listed as “Does Not Prolong AP”. Moreover, the “WT-Cessation Dose (μM)” value in series [1] (WT cardiomyocytes, cessation of beating) is recorded as “No cessation of beating”. Besides, in series [2] (LQT-3 cardiomyocytes), the “LQT-Fold Shortening” value was found to be 1.123 and the “LQT-EC50 (μM) Shortening” value is reported as “Shortens”.
With `OCCNC(COc1cc(C(F)(F)F)cc(C(F)(F)F)c1)c1ccccc1` (stereo not shown) [Compound 93], in series [1], the “WT-Fold Prolongation” value is on record as “None”, the “Cessation of Beating” value worked out at 66 µM and the “WT-Prolongation Dose” value was “None”. For the same molecule, in series [2] (LQT3 cardiomyocytes), the “LQT-Cessation Dose” value came to 22 µM and the “LQT-Fold Shortening” value is 1.5.
As for `Cc1ccc(OCC(C)N)c(C)c1.Cl` (stereo not shown) [Compound 64], in series [1], the “WT-Fold Prolongation” value turned out to be 2.621, the “Cessation of Beating” value is listed as “None” and the “WT-EAD Dose” value is 133 µM. In series [2] (LQT3 cardiomyocytes), the “LQT-Cessation Dose” value was “None”, the “LQT-Fold Shortening” value was “None” and the “LQT-Shortening Dose” value is “None”.
